Biological target: T1, PA0285_317-760 (Pseudomonas aeruginosa, UniProt Q9I6K5)
T1 construct: gene PA0285; GGDEF/EAL tandem domains, residues 317-760 of 760; transmembrane and PAS domains absent; GST tag cleaved by thrombin; E. coli BL21(DE3); monomer (copies word: monomeric)
Assay: HDX-MS
Assay type: binding
Settings: 2.5 mM GTP, 1 mM MgCl2, 1 mM MnCl2, pH 7.5, 25 °C; site: GGDEF domain; no diguanylate cyclase turnover

T1 sequence (Q9I6K5 entry or part of it): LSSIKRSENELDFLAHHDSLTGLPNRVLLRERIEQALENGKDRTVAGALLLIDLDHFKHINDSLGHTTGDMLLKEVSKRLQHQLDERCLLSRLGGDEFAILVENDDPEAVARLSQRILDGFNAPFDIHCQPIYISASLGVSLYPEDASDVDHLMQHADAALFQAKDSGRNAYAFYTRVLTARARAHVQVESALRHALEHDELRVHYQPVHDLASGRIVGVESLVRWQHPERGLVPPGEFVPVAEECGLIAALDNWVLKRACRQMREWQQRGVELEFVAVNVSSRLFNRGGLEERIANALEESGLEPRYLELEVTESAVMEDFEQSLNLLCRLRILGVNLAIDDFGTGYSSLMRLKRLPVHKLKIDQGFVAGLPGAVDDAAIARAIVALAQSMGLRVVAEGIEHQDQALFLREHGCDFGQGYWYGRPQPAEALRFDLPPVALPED

For Nc1nc2c(ncn2[C@@H]2O[C@H](COP(=O)(O)OP(=O)(O)OP(=O)(O)O)[C@@H](O)[C@H]2O)c(=O)[nH]1 [GTP], the HDX-MS was “the neighboring helices exhibited reduced HDX, substantiating GTP binding”.
